According to patent US20100292255A1, “Therapeutic Compounds and Their Use in Treating Diseases and Disorders” (Myriad Pharmaceuticals, Inc., priority 2007, published 2010):

Tested on: T1, purified human Hsp90
T1 construct: purified human Hsp90 (Stressgen, SPP-770)
Experiment: Hsp90 binding assay: displacement of BODIPY-labeled geldanamycin measured by fluorescence polarization
Settings: 5 μM compound; BODIPY-GM 10 nM, Hsp90 30 nM, overnight at room temperature
Summary of the method: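 Purified human Hsp90 at 30 nM and 10 nM BODIPY-GM tracer were incubated overnight at room temperature with compound in 2% DMSO. The buffer was 20 mM HEPES-KOH pH 7.3, 50 mM KCl, 5 mM MgCl2, 20 mM Na2MoO4, 2 mM DTT. Background-subtracted mP values read at 485/530 nm were normalized to DMSO wells to give % inhibition.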

Compound | GM displacement from purified Hsp90 measured by FP Inhibition by 5 μM compd. (%)
CCN(CC)C(=O)CN1CCC(CCn2cnc(N)c3nc(Sc4cc5c(cc4Br)OCCO5)nc2-3)CC1 [compound 28, 2-[4-(2-{6-Amino-8-[(7-bromo-2,3-dihydro-1,4-benzodioxin-6-yl)thio]-3H-purin-3-yl}ethyl)piperidin-1-yl]-N,N-diethylacetamide] | 40.0%
Nc1ncn(CCn2c(=O)n3n(c2=O)CC=CC3)c2nc(Sc3cc4c(cc3Br)OCO4)nc1-2 [compound 30, 2-(2-{6-Amino-8-[(6-bromo-1,3-benzodioxol-5-yl)thio]-3H-purin-3-yl}ethyl)-5,8-dihydro-1H-[1,2,4]triazolo[1,2-a]pyridazine-1,3(2H)-dione] | 23.0%
N#CCCN1CCC(CCn2cnc(N)c3nc(Sc4cc5c(cc4Br)OCO5)nc2-3)CC1 [compound 32] | 9.0%
COCC(=O)N1CCC(CCn2cnc(N)c3nc(Sc4cc5c(cc4C#N)OCO5)nc2-3)CC1 [compound 34, 6-[(6-Amino-3-{2-[1-(methoxyacetyl)piperidin-4-yl]ethyl}-3H-purin-8-yl)thio]-1,3-benzodioxole-5-carbonitrile] | 88.0%
CO[C@H](C)C(=O)N1CCC(CCn2cnc(N)c3nc(Sc4cc5c(cc4C#N)OCO5)nc2-3)CC1 [compound 36, 6-{[6-Amino-3-(2-{1-[(2R)-2-methoxypropanoyl]piperidin-4-yl}ethyl)-3H-purin-8-yl]thio}-1,3-benzodioxole-5-carbonitrile] | 35.0%
CO[C@@H](C)C(=O)N1CCC(CCn2cnc(N)c3nc(Sc4cc5c(cc4C#N)OCO5)nc2-3)CC1 [compound 38, 6-{[6-Amino-3-(2-{1-[(2S)-2-methoxypropanoyl]piperidin-4-yl}ethyl)-3H-purin-8-yl]thio}-1,3-benzodioxole-5-carbonitrile] | 36.0%
N#Cc1cc2c(cc1Sc1nc3c(N)ncn(CCC4CCN(C(=O)C5CC5(F)F)CC4)c-3n1)OCO2 (stereo not drawn) [compound 40, 6-{[6-Amino-3-(2-{1-[(2,2-difluorocyclopropyl)carbonyl]piperidin-4-yl}ethyl)-3H-purin-8-yl]thio}-1,3-benzodioxole-5-carbonitrile] | 33.0%
CS(=O)(=O)N1CCCC(CCn2cnc(N)c3nc(Sc4cc5c(cc4C#N)OCO5)nc2-3)C1 (stereo not drawn) [compound 48, 6-[(6-Amino-3-{2-[1-(methylsulfonyl)piperidin-3-yl]ethyl}-3H-purin-8-yl)thio]-1,3-benzodioxole-5-carbonitrile] | 77.0%
CS(=O)(=O)N1CCCC(CCn2cnc(N)c3nc(Sc4cc5c(cc4C#N)OCCO5)nc2-3)C1 (stereo not drawn) [compound 53, 7-[(6-Amino-3-{2-[1-(methylsulfonyl)piperidin-3-yl]ethyl}-3H-purin-8-yl)thio]-2,3-dihydro-1,4-benzodioxine-6-carbonitrile] | 60.0%
CS(=O)(=O)N1CCC(CCn2cnc(N)c3nc(Sc4cc5c(cc4C#N)OCCO5)nc2-3)CC1 [compound 55] | 26.0%
N#Cc1cc2c(cc1Sc1nc3c(N)ncn(CCn4c(=O)n5n(c4=O)CC=CC5)c-3n1)OCO2 [compound 63] | 34.0%

Same assay, conditions: BODIPY-GM 10 nM, Hsp90 30 nM, overnight at room temperature; read-out: GM displacement from purified Hsp90 measured by FP IC 50

Compound | IC50
Nc1ncnc2c1nc(Sc1cc3c(cc1Br)OCO3)n2CCn1c(=O)n2n(c1=O)CC=CC2 [compound 29, 2-(2-{6-Amino-8-[(6-bromo-1,3-benzodioxol-5-yl)thio]-9H-purin-9-yl}ethyl)-5,8-dihydro-1H-[1,2,4]triazolo[1,2-a]pyridazine-1,3(2H)-dione] | 1800 nM
Nc1ncnc2c1nc(Sc1cc3c(cc1Br)OCO3)n2CCCn1c(=O)n2n(c1=O)CC=CC2 [compound 31] | 900 nM
COCC(=O)N1CCC(CCn2c(Sc3cc4c(cc3C#N)OCO4)nc3c(N)ncnc32)CC1 [compound 33, 6-[(6-Amino-9-{2-[1-(methoxyacetyl)piperidin-4-yl]ethyl}-9H-purin-8-yl)thio]-1,3-benzodioxole-5-carbonitrile] | 300 nM
CO[C@H](C)C(=O)N1CCC(CCn2c(Sc3cc4c(cc3C#N)OCO4)nc3c(N)ncnc32)CC1 [compound 35, 6-{[6-Amino-9-(2-{1-[(2R)-2-methoxypropanoyl]piperidin-4-yl}ethyl)-9H-purin-8-yl]thio}-1,3-benzodioxole-5-carbonitrile] | 500 nM
CO[C@@H](C)C(=O)N1CCC(CCn2c(Sc3cc4c(cc3C#N)OCO4)nc3c(N)ncnc32)CC1 [compound 37, 6-{[6-Amino-9-(2-{1-[(2S)-2-methoxypropanoyl]piperidin-4-yl}ethyl)-9H-purin-8-yl]thio}-1,3-benzodioxole-5-carbonitrile] | 550 nM
N#Cc1cc2c(cc1Sc1nc3c(N)ncnc3n1CCC1CCN(C(=O)C3CC3(F)F)CC1)OCO2 (stereo not drawn) [compound 39, 6-{[6-Amino-9-(2-{1-[(2,2-difluorocyclopropyl)carbonyl]piperidin-4-yl}ethyl)-9H-purin-8-yl]thio}-1,3-benzodioxole-5-carbonitrile] | 200 nM
COCCC(=O)N1CCC(CCn2c(Sc3cc4c(cc3C#N)OCO4)nc3c(N)ncnc32)CC1 [compound 41, 6-[(6-Amino-9-{2-[1-(3-methoxypropanoyl)piperidin-4-yl]ethyl}-9H-purin-8-yl)thio]-1,3-benzodioxole-5-carbonitrile] | 480 nM
COCCOCC(=O)N1CCC(CCn2c(Sc3cc4c(cc3C#N)OCO4)nc3c(N)ncnc32)CC1 [compound 42, 6-{[6-Amino-9-(2-{1-[(2-methoxyethoxy)acetyl]piperidin-4-yl}ethyl)-9H-purin-8-yl]thio}-1,3-benzodioxole-5-carbonitrile] | 500 nM
CO[C@@H](C)C(=O)N1CCC(CCn2c(Sc3cc4c(cc3C#N)OCCO4)nc3c(N)ncnc32)CC1 [compound 43, 7-{[6-Amino-9-(2-{1-[(2S)-2-methoxypropanoyl]piperidin-4-yl}ethyl)-9H-purin-8-yl]thio}-2,3-dihydro-1,4-benzodioxine-6-carbonitrile] | 320 nM
CO[C@H](C)C(=O)N1CCC(CCn2c(Sc3cc4c(cc3C#N)OCCO4)nc3c(N)ncnc32)CC1 [compound 44, 7-{[6-Amino-9-(2-{1-[(2R)-2-methoxypropanoyl]piperidin-4-yl}ethyl)-9H-purin-8-yl]thio}-2,3-dihydro-1,4-benzodioxine-6-carbonitrile] | 300 nM
COCC(=O)N1CCC(CCn2c(Sc3cc4c(cc3C#N)OCCO4)nc3c(N)ncnc32)CC1 [compound 45, 7-[(6-Amino-9-{2-[1-(methoxyacetyl)piperidin-4-yl]ethyl}-9H-purin-8-yl)thio]-2,3-dihydro-1,4-benzodioxine-6-carbonitrile] | 220 nM
CS(=O)(=O)N1CCCCC1CCn1c(Sc2cc3c(cc2C#N)OCO3)nc2c(N)ncnc21 (stereo not drawn) [compound 46, 6-[(6-Amino-9-{2-[1-(methylsulfonyl)piperidin-2-yl]ethyl}-9H-purin-8-yl)thio]-1,3-benzodioxole-5-carbonitrile] | 700 nM
CS(=O)(=O)N1CCCC(CCn2c(Sc3cc4c(cc3C#N)OCO4)nc3c(N)ncnc32)C1 (stereo not drawn) [compound 47, 6-[(6-Amino-9 {2-[1-(methylsulfonyl)piperidin-3-yl]ethyl}-9H-purin-8-yl)thio]-1,3-benzodioxole-5-carbonitrile] | 90 nM
CS(=O)(=O)N1CCC(CCn2c(Sc3cc4c(cc3C#N)OCO4)nc3c(N)ncnc32)CC1 [compound 49, 6-[(6-Amino-9-{2-[1-(methylsulfonyl)piperidin-4-yl]ethyl}-9H-purin-8-yl)thio]-1,3-benzodioxole-5-carbonitrile] | 480 nM
CCCN1CCCCC1CCn1c(Sc2cc3c(cc2C#N)OCO3)nc2c(N)ncnc21 (stereo not drawn) [compound 50, 6-({6-Amino-9-[2-(1-propylpiperidin-2-yl)ethyl]-9H-purin-8-yl}thio)-1,3-benzodioxole-5-carbonitrile] | 1200 nM
CS(=O)(=O)N1CCCCC1CCn1c(Sc2cc3c(cc2C#N)OCCO3)nc2c(N)ncnc21 (stereo not drawn) [compound 51, 7-[(6-Amino-9-{2-[1-(methylsulfonyl)piperidin-2-yl]ethyl}-9H-purin-8-yl)thio]-2,3-dihydro-1,4-benzodioxine-6-carbonitrile] | 370 nM
CS(=O)(=O)N1CCCC(CCn2c(Sc3cc4c(cc3C#N)OCCO4)nc3c(N)ncnc32)C1 (stereo not drawn) [compound 52, 7-[(6-Amino-9-{2-[1-(methylsulfonyl)piperidin-3-yl]ethyl}-9H-purin-8-yl)thio]-2,3-dihydro-1,4-benzodioxine-6-carbonitrile] | 150 nM
CS(=O)(=O)N1CCC(CCn2c(Sc3cc4c(cc3C#N)OCCO4)nc3c(N)ncnc32)CC1 [compound 54, 7-[(6-Amino-9-{2-[1-(methylsulfonyl)piperidin-4-yl]ethyl}-9H-purin-8-yl)thio]-2,3-dihydro-1,4-benzodioxine-6-carbonitrile] | 550 nM
N#Cc1cc2c(cc1Sc1nc3c(N)ncnc3n1CCC1CCN(C=O)CC1)OCCO2 [compound 57] | 120 nM
Cn1nnnc1N1CCC(CCn2c(Sc3cc4c(cc3C#N)OCCO4)nc3c(N)ncnc32)CC1 [compound 58, 7-[(6-Amino-9-{2-[1-(1-methyl-1H-tetrazol-5-yl)piperidin-4-yl]ethyl}-9H-purin-8-yl)thio]-2,3-dihydro-1,4-benzodioxine-6-carbonitrile] | 180 nM
CC(=O)N1CCC(CCn2c(Sc3cc4c(cc3C#N)OCCO4)nc3c(N)ncnc32)CC1 [compound 60, 7-({9-[2-(1-Acetylpiperidin-4-yl)ethyl]-6-amino-9H-purin-8-yl}thio)-2,3-dihydro-1,4-benzodioxine-6-carbonitrile] | 60 nM
CCC(=O)N1CCC(CCn2c(Sc3cc4c(cc3C#N)OCO4)nc3c(N)ncnc32)CC1 [compound 61] | 200 nM
